Source: patent US10005731B2, “Modulators of the retinoid-related orphan receptor gamma (ROR-gamma) for use in the treatment of autoimmune and inflammatory diseases” (Glaxo Group Limited, priority 2012, dated 2018)
Where a name gives a salt, the structure may show the parent alone.

Tests used:
[1] = tested on: Mouse CD4+ cells; assay: Th17 cell differentiation assay (IL-17 ELISA); assay type: cell-based; details: 72 h, mean pIC50, IL-17 ELISA, 3 days culture, detection limit of the assay 5, read-out: pIC50 in the Th17 cell differentiation assay (converted)
Description: Mouse CD4+cells were purified using the CD4+ T Cell Isolation II Kit according to manufacturer's instructions (Miltenyi Biotec). 96 well plates were pre-coated with anti-mCD3 antibody. Un-coated wells were used as controls. CD4+ Cells were resuspended in RPMI 1640 complete medium and were added to the 96-well plates. Cytokine cocktail and the compound were then added to the wells. Antibodies and cytokines (all from R&D Systems) used in the assay were selected from the following: anti-mCD3; anti-mCD28; anti-mIFNγ; anti-mIL4; mIL-6; mIL-23; mIL-1β; hTGF-β1. The culture was incubated at 37° C. for 3 days and supernatants were collected for ELISA. The IL-17 ELISAs were performed according to manufacturer's instructions (R&D Systems). The results were analyzed using Prism software with non-linear regression to determine pIC50.

[2] = tested on: Experimental Autoimmune Encephalomyelitis (EAE); assay: EAE studies (Experimental Autoimmune Encephalomyelitis); assay type: in vivo, mice of the C57BL/6 (B6) strain; details: orally twice a day from day 0; for EAE onset and clinical score: effect starting at 3, 10 or 30 mg/kg
[3] = biological target: T1, Human RORγ Ligand Binding Domain (RORγ-LBD) (Homo sapiens, UniProt P51449); assay: Dual Fluorescence Energy Transfer (FRET) assay, RORγ-LBD / SRC1(2) co-activator peptide interaction; assay type: biochemical; details: mean of multiple test results if tested more than once; read-out: pIC50 in the dual FRET assay (converted)
T1 construct: made in house; host or cells: E. coli BL21(DE3), modified pET21a
T1 sequence (P51449 263-518): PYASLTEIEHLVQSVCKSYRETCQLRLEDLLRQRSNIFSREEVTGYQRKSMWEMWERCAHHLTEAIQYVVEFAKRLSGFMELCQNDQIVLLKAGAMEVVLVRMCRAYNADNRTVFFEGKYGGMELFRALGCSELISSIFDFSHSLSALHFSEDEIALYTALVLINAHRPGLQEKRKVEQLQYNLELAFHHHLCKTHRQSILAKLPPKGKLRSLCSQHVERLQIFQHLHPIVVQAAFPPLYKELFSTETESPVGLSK
Description: This assay is based on the knowledge that nuclear receptors interact with cofactors (transcription factors) in a ligand dependent manner. RORγ is a typical nuclear receptor in that it has an AF2 domain in the ligand binding domain (LBD) which interacts with co-activators.
The assay measures ligand-mediated interaction of the co-activator peptide with the purified bacterial-expressed RORγ ligand binding domain (RORγ-LBD) to indirectly assess ligand binding. RORγ has a basal level of interaction with the co-activator SRC1(2) in the absence of ligand, thus it is possible to find ligands that inhibit or enhance the RORγ/SRC1(2) interaction.
Human RORγ Ligand Binding Domain (RORγ-LBD) was expressed in E.coli strain BL21(DE3) as an amino-terminal polyhistidine tagged fusion protein. DNA encoding this recombinant protein was sub-cloned into a modified pET21a expression vector (Novagen).
Approximately 50 g E. coli cell pellet was resuspended in 300 mL of lysis buffer (30 mM imidazole pH 7.0 and 150 mM NaCl). Cells were lysed by sonication and cell debris was removed by centrifugation for 30 minutes at 20,000 g at 4° C. […] The clarified lysate was loaded onto a column (XK-26) packed with ProBond Nickel Chelating resin (Invitrogen), pre-equilibrated with 30 mM imidazole pH 7.0 and 150 mM NaCl. After washing to baseline absorbance with the equilibration buffer, the column was developed with a gradient from 30 to 500 mM imidazole pH 7.0. Column fractions containing the RORγ-LBD protein were pooled and concentrated to a volume of 5 mls. The concentrated protein was loaded onto a Superdex 200 column pre-equilibrated with 20 mM Tris-CI pH 7.2 and 200 mM NaCl. The fractions containing the desired RORγ-LBD protein were pooled together.
Purified RORγ-LBD was buffer exchanged by exhaustive dialysis [3 changes of at least 20 volumes (>8000x)] against PBS [100mM NaPhosphate, pH 8 and 150mM NaC1]. […] The modified protein was distributed into aliquots, frozen on dry ice and stored at −80° C. The biotinylated RORγ-LBD was subjected to mass spectrometric analysis to reveal the extent of modification by the biotinylation reagent.
An appropriate amount of Europium labeled Streptavidin was then added to the biotinylated SRC1(2) solution in a tube to give a final concentration of 10 nM. The tube was inverted gently and incubated for 15 minutes at room temperature. Twenty-fold excess biotin from the 10 mM stock solution was added and the tube was inverted gently and incubated for 10 minutes at room temperature.
Preparation of APC labeled RORγ-LBD: biotinylated RORγ-LBD solution was prepared by adding an appropriate amount of biotinylated RORγ-LBD from the stock solution to a buffer containing 10 mM of freshly added DTT from solid to give a final concentration of 40 nM. An appropriate amount of APC labeled Streptavidin was then added to the biotinylated RORγ-LBD solution in a tube to give a final concentration of 20 nM. The tube was inverted gently and incubated for 15 minutes at room temperature. Twenty-fold excess biotin from the 10 mM stock solution was then added and the tube was inverted gently and incubated for 10 minutes at room temperature.
The reaction mixtures were incubated for 5 minutes. […] The plates were incubated for lhr and then read on ViewLux in Lance mode for EU/APC.

| IC50 [1] | IC50 [3] | SMILES | EAE onset and clinical score [2] | EAE onset ([2]; 30 mg/kg) |
| --- | --- | --- | --- | --- |
| ~0.0316 µM | ~0.1 µM | Cc1ncc(C(=O)Nc2cc(F)cc(CN3CCN(C(=O)C4CCCC4)[C@@H](C)C3)c2C)cn1 [Example 20, (S)-N-(3-((4-(cyclopentanecarbonyl)-3-methylpiperazin-1-yl)methyl)-5-fluoro-2-methylphenyl)-2-methylpyrimidine-5-carboxamide] | delay EAE onset and lower clinical score |  |
|  |  | Cc1ccc(C(=O)Nc2cc(Cl)cc(CN3CCN(C(=O)C4CCCC4)[C@@H](C)C3)c2C)cn1 [Example 62, (S)-N-(5-chloro-3-((4-(cyclopentanecarbonyl)-3-methylpiperazin-1-yl)methyl)-2-methylphenyl)-6-methylnicotinamide] |  | delay EAE onset |
| > 10 µM |  | Cc1c(NC(=O)c2ccc[nH]c2=O)ccc(F)c1CN1CCN(C(=O)C2CCCC2)[C@@H](C)C1 [Example 129, (S)-N-(3-((4-(cyclopentanecarbonyl)-3-methylpiperazin-1-yl)methyl)-4-fluoro-2-methylphenyl)-2-oxo-1,2-dihydropyridine-3-carboxamide, trifluoroacetic acid salt] |  |  |
|  |  | Cc1c(CN2CCN(C(=O)C3CC(F)(F)C3)[C@@H](C)C2)cc(F)cc1NC(=O)c1cccc(C#N)c1 [Example 175, (S)-3-cyano-N-(3-((4-(3,3-difluorocyclobutanecarbonyl)-3-methylpiperazin-1-yl)methyl)-5-fluoro-2-methylphenyl)benzamide, trifluoroacetic acid salt] | delay EAE onset and lower clinical score |  |
| ~0.0209 µM | ~0.0794 µM | Cc1ccc(C(=O)Nc2cc(F)cc(CN3CCN(C(=O)[C@H]4C[C@@H](C)C4)[C@@H](C)C3)c2C)cn1 [Example 185, N-(5-fluoro-2-methyl-3-(((S)-3-methyl-4-((cis)-3-methylcyclobutanecarbonyl)piperazin-1-yl)methyl)phenyl)-6-methylnicotinamide] |  |  |
| ~0.0372 µM | ~0.0794 µM | Cc1ccc(C(=O)Nc2cc(F)cc(CN3CCN(C(=O)[C@H]4C[C@H](C)C4)[C@@H](C)C3)c2C)cn1 [Example 186, N-(5-fluoro-2-methyl-3-(((S)-3-methyl-4-((trans)-3-methylcyclobutanecarbonyl)piperazin-1-yl)methyl)phenyl)-6-methylnicotinamide] |  |  |
| ~0.00316 µM | ~0.126 µM | Cc1cc(C(=O)Nc2cc(Cl)cc(CN3CCN(C(=O)C4CCCC4)[C@@H](C)C3)c2C)ccn1 [Example 187, (S)-N-(5-chloro-3-((4-(cyclopentanecarbonyl)-3-methylpiperazin-1-yl)methyl)-2-methylphenyl)-2-methylisonicotinamide] |  |  |
| ~0.00871 µM | ~0.0631 µM | Cc1ccc(C(=O)Nc2cc(Cl)cc(CN3CCN(C(=O)[C@H]4C[C@H](C)C4)[C@@H](C)C3)c2C)cn1 [Example 188, N-(5-chloro-2-methyl-3-(((S)-3-methyl-4-((trans)-3-methylcyclobutanecarbonyl)piperazin-1-yl)methyl)phenyl)-6-methylnicotinamide] |  |  |
| ~0.00513 µM | ~0.0501 µM | Cc1ccc(C(=O)Nc2cc(Cl)cc(CN3CCN(C(=O)[C@H]4C[C@@H](C)C4)[C@@H](C)C3)c2C)cn1 [Example 189, N-(5-chloro-2-methyl-3-(((S)-3-methyl-4-((cis)-3-methylcyclobutanecarbonyl)piperazin-1-yl)methyl)phenyl)-6-methylnicotinamide] |  |  |

| SMILES | IC50 [1] | IC50 [3] | EAE onset and clinical score [2] | EAE onset ([2]; 30 mg/kg) |
| --- | --- | --- | --- | --- |
| Cc1ncc(C(=O)Nc2cc(Cl)cc(CN3CCN(C(=O)C4CCCC4)[C@@H](C)C3)c2C)cn1 [Example 192, (S)-N-(5-chloro-3-((4-(cyclopentanecarbonyl)-3-methylpiperazin-1-yl)methyl)-2-methylphenyl)-2-methylpyrimidine-5-carboxamide] | ~0.00794 µM |  | delay EAE onset and lower clinical score |  |
